Experimental data: the supplement of paper PMC10307832

Columns and labels:
Assay in all cases: relative viability (nuclei count vs DMSO), 5 days (fraction); higher = more cells survive
[1] = test system: SW 1573
In short: (§1)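 Relative viability is defined as nuclei in treated wells over nuclei in vehicle wells. Duplicate plates were run and medians reported. Lung cancer cell lines in 1536-well plates were dosed by pin tool one day after seeding, with one drug or with a fixed anchor-drug dose plus five library-drug doses (not always all listed) in √10 steps, and nuclei were counted after 5 days.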

[2] = test system: NCI-H1651
In short: as §1

[3] = test system: NCI-H1355
In short: as §1

[4] = test system: ABC-1
In short: as §1

[5] = test system: NCI-H1915
In short: as §1

[6] = test system: UMC-11
In short: as §1

[7] = test system: NCI-H2023
In short: as §1

[8] = test system: NCI-H2085
In short: as §1

[9] = test system: PC-14
In short: as §1

[10] = test system: NCI-H650
In short: as §1

[11] = test system: EPLC-272H
In short: as §1

[12] = test system: LC-2-ad
In short: as §1

[13] = test system: HARA
In short: as §1

[14] = test system: NCI-H838
In short: as §1

[15] = test system: NCI-H2126
In short: as §1

[16] = test system: COR-L23
In short: as §1

[17] = test system: HCC-15
In short: as §1

[18] = test system: NCI-H2347
In short: as §1

[19] = test system: NCI-H1993
In short: as §1

[20] = test system: LU99A
In short: as §1

[21] = test system: HOP-62
In short: as §1

## CC(=O)O[C@@]12CO[C@@H]1C[C@H](O)[C@@]1(C)C(=O)[C@H](O)C3=C(C)[C@@H](OC(=O)[C@H](O)[C@@H](NC(=O)OC(C)(C)C)c4ccccc4)C[C@@](O)([C@@H](OC(=O)c4ccccc4)[C@H]21)C3(C)C [Docetaxel] + COc1cc2c(Oc3ccc(NC(=O)C4(C(=O)Nc5ccc(F)cc5)CC4)cc3F)ccnc2cc1OCCCN1CCOCC1 [Foretinib] (partner 0.25 µM)
[1]; first compound 0.0002 µM
  relative viability: 0.719
[1]; first compound 0.000632 µM
  relative viability: 1.06
[1]; first compound 0.002 µM
  relative viability: 0.342
[1]; first compound 0.006325 µM
  relative viability: 0.193
[1]; first compound 0.02 µM
  relative viability: 0.2
[2]; first compound 0.0002 µM
  relative viability: 0.795
[2]; first compound 0.000632 µM
  relative viability: 0.789
[2]; first compound 0.002 µM
  relative viability: 0.238
[2]; first compound 0.006325 µM
  relative viability: 0.128
[2]; first compound 0.02 µM
  relative viability: 0.107
[3]; first compound 0.0002 µM
  relative viability: 0.958
[3]; first compound 0.000632 µM
  relative viability: 0.886
[3]; first compound 0.002 µM
  relative viability: 0.625
[3]; first compound 0.006325 µM
  relative viability: 0.276
[3]; first compound 0.02 µM
  relative viability: 0.243
[4]; first compound 0.0002 µM
  relative viability: 1.16
[4]; first compound 0.000632 µM
  relative viability: 1.18
[4]; first compound 0.002 µM
  relative viability: 0.333
[4]; first compound 0.006325 µM
  relative viability: 0.351
[4]; first compound 0.02 µM
  relative viability: 0.216
[5]; first compound 0.0002 µM
  relative viability: 1.15
[5]; first compound 0.000632 µM
  relative viability: 1.05
[5]; first compound 0.002 µM
  relative viability: 0.736
[5]; first compound 0.006325 µM
  relative viability: 0.262
[5]; first compound 0.02 µM
  relative viability: 0.179
[6]; first compound 0.0002 µM
  relative viability: 0.934
[6]; first compound 0.000632 µM
  relative viability: 0.943
[6]; first compound 0.002 µM
  relative viability: 0.307
[6]; first compound 0.006325 µM
  relative viability: 0.245
[6]; first compound 0.02 µM
  relative viability: 0.186
[7]; first compound 0.0002 µM
  relative viability: 0.735
[7]; first compound 0.000632 µM
  relative viability: 0.868
[7]; first compound 0.002 µM
  relative viability: 0.111
[7]; first compound 0.006325 µM
  relative viability: 0.102
[7]; first compound 0.02 µM
  relative viability: 0.0789
[8]; first compound 0.0002 µM
  relative viability: 0.852
[8]; first compound 0.000632 µM
  relative viability: 0.965
[8]; first compound 0.002 µM
  relative viability: 0.568
[8]; first compound 0.006325 µM
  relative viability: 0.34
[8]; first compound 0.02 µM
  relative viability: 0.414
[9]; first compound 0.0002 µM
  relative viability: 0.886
[9]; first compound 0.000632 µM
  relative viability: 1.03
[9]; first compound 0.002 µM
  relative viability: 0.576
[9]; first compound 0.006325 µM
  relative viability: 0.117
[9]; first compound 0.02 µM
  relative viability: 0.0977
[10]; first compound 0.0002 µM
  relative viability: 0.958
[10]; first compound 0.000632 µM
  relative viability: 0.921
[10]; first compound 0.002 µM
  relative viability: 0.299
[10]; first compound 0.006325 µM
  relative viability: 0.277
[10]; first compound 0.02 µM
  relative viability: 0.218
[11]; first compound 0.0002 µM
  relative viability: 0.7
[11]; first compound 0.000632 µM
  relative viability: 0.278
[11]; first compound 0.002 µM
  relative viability: 0.249
[11]; first compound 0.006325 µM
  relative viability: 0.0711
[11]; first compound 0.02 µM
  relative viability: 0.0667
[12]; first compound 0.0002 µM
  relative viability: 0.882
[12]; first compound 0.000632 µM
  relative viability: 0.494
[12]; first compound 0.002 µM
  relative viability: 0.441
[12]; first compound 0.006325 µM
  relative viability: 0.395
[13]; first compound 0.0002 µM
  relative viability: 0.709
[13]; first compound 0.000632 µM
  relative viability: 0.128
[13]; first compound 0.002 µM
  relative viability: 0.146
[13]; first compound 0.006325 µM
  relative viability: 0.0748
[13]; first compound 0.02 µM
  relative viability: 0.0559
[14]; first compound 0.0002 µM
  relative viability: 0.98
[14]; first compound 0.000632 µM
  relative viability: 1.03
[14]; first compound 0.002 µM
  relative viability: 0.262
[14]; first compound 0.006325 µM
  relative viability: 0.283
[14]; first compound 0.02 µM
  relative viability: 0.162
[15]; first compound 0.0002 µM
  relative viability: 1.08
[15]; first compound 0.000632 µM
  relative viability: 1.14
[15]; first compound 0.002 µM
  relative viability: 0.588
[15]; first compound 0.006325 µM
  relative viability: 0.456
[15]; first compound 0.02 µM
  relative viability: 0.228
[16]; first compound 0.0002 µM
  relative viability: 0.891
[16]; first compound 0.000632 µM
  relative viability: 0.896
[16]; first compound 0.002 µM
  relative viability: 0.561
[16]; first compound 0.006325 µM
  relative viability: 0.173
[16]; first compound 0.02 µM
  relative viability: 0.116
[17]; first compound 0.0002 µM
  relative viability: 0.906
[17]; first compound 0.000632 µM
  relative viability: 0.472
[17]; first compound 0.002 µM
  relative viability: 0.233
[17]; first compound 0.006325 µM
  relative viability: 0.27
[17]; first compound 0.02 µM
  relative viability: 0.162
[18]; first compound 0.0002 µM
  relative viability: 0.806
[18]; first compound 0.000632 µM
  relative viability: 0.815
[18]; first compound 0.002 µM
  relative viability: 0.541
[18]; first compound 0.006325 µM
  relative viability: 0.31
[18]; first compound 0.02 µM
  relative viability: 0.368
[19]; first compound 0.0002 µM
  relative viability: 0.78
[19]; first compound 0.000632 µM
  relative viability: 0.803
[19]; first compound 0.002 µM
  relative viability: 0.659
[19]; first compound 0.006325 µM
  relative viability: 0.671
[19]; first compound 0.02 µM
  relative viability: 0.51
[20]; first compound 0.0002 µM
  relative viability: 0.718
[20]; first compound 0.000632 µM
  relative viability: 0.794
[20]; first compound 0.002 µM
  relative viability: 0.486
[20]; first compound 0.006325 µM
  relative viability: 0.393
[20]; first compound 0.02 µM
  relative viability: 0.259
[21]; first compound 0.0002 µM
  relative viability: 1.07
[21]; first compound 0.000632 µM
  relative viability: 0.732
[21]; first compound 0.002 µM
  relative viability: 0.427
[21]; first compound 0.006325 µM
  relative viability: 0.295
